Source: ChEMBL document CHEMBL1201862, “PubChem BioAssay data set” (2004)
Activity calls are given as the source filed them.

Columns and labels:
[1] = target: SUMO E1/E2 (Homo sapiens, UniProt P63279+Q9UBE0+Q9UBT2); experiment: SAR analysis of SUMOylation using HTRF in an in-Vitro dose response assay. [Related pubchem assays (depositor defined):AID2006, AID2011, AID2018, AID2069, AID2658]; type: functional
[2] = target: T1, Tyrosine-protein phosphatase non-receptor type 7 (Homo sapiens, UniProt P35236); type: functional
T1 sequence (P35236 whole entry): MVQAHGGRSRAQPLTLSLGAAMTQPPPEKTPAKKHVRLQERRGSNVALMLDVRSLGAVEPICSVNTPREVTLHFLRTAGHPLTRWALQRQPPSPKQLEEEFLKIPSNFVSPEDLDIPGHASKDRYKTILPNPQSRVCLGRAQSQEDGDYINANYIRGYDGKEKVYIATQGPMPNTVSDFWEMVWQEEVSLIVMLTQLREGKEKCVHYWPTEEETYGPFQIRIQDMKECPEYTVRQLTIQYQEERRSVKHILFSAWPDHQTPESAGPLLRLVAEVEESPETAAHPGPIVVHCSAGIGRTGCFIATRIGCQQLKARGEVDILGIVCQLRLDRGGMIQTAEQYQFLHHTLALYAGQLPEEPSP

[3] = inhibitors of intracellular T. cruzi replication, confirmation, NIH3T3 host cells, beta-gal luminescence (AID 2044); type: functional, cell-based;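 note: intracellular parasites grown in NIH/3T3 mouse fibroblasts as host cells; luminescent beta-galactosidase reporter signal from transgenic T. cruzi replicating inside host cells; inhibitors lower the luminescence signal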
[4] = cytotoxicity toward NIH3T3 fibroblasts, dose response, counter-screen, cell-based, ATP luminescence, mouse fibroblasts (AID 2010); type: functional;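 note: cells exposed to compound for about 90 hours before reading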
[5] = target: T2, Tyrosine-protein phosphatase non-receptor type 22 (Homo sapiens, UniProt Q9Y2R2); type: functional
T2 sequence (Q9Y2R2 whole entry): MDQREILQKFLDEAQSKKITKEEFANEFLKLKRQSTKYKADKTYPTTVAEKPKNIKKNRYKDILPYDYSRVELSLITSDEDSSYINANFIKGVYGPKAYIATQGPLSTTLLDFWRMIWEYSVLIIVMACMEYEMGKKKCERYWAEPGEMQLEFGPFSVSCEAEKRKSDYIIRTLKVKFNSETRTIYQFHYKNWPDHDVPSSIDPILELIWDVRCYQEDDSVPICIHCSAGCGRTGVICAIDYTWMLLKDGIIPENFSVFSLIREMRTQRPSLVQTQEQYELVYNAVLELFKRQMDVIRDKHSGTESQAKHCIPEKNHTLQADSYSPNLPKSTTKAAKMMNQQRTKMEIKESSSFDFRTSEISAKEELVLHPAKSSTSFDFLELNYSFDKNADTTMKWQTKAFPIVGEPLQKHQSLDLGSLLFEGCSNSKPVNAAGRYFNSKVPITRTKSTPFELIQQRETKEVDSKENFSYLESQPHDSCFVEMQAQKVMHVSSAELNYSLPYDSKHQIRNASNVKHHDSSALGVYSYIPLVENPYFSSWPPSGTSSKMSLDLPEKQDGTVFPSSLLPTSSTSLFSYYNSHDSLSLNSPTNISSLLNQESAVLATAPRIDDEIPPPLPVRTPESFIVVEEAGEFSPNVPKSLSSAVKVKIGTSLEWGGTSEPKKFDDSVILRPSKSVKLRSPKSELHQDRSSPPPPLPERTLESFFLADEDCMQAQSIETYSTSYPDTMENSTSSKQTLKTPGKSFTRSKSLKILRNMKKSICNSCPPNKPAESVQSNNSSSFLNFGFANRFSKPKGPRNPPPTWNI

[6] = target: T2, Tyrosine-protein phosphatase non-receptor type 22; type: functional; remark: listed apart in the source
[7] = target: DNA dC->dU-editing enzyme APOBEC-3G (Homo sapiens, UniProt Q9HC16); experiment: Dose Response confirmation of small molecule APOBEC3G DNA Deaminase Inhibitors via a fluorescence-based single-stranded DNA deaminase assay. [Related pubchem assays (depositor defined):AID493012, AID493028]; type: functional
DNA dC->dU-editing enzyme APOBEC-3G, sequence (Q9HC16 whole entry): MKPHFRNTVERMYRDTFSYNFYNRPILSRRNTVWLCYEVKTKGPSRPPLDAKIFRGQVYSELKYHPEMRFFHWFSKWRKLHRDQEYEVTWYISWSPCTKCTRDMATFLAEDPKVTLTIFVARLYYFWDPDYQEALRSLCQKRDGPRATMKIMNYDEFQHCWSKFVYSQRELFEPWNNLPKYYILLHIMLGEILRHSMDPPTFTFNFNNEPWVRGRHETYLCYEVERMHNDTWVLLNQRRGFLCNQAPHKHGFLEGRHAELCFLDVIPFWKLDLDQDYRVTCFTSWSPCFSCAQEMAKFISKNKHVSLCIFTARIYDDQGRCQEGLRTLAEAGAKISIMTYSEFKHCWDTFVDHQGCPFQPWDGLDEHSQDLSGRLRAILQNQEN

[8] = target: Lysine-specific demethylase 4A (Homo sapiens, UniProt O75164); experiment: JMJD2A histone demethylase inhibitors, dose response, selectivity assay for GASC-1 inhibitor project, biochemical, DELFIA europium, cherry-picked samples (AID 488840)
[9] = target: Lysine-specific demethylase 4C (Homo sapiens, UniProt Q9H3R0); experiment: GASC-1 (JMJD2C) histone demethylase inhibitors, dose response, biochemical, DELFIA europium, cherry-picked samples (AID 488835); type: functional
[10] = target: Tyrosyl-DNA phosphodiesterase 2 (Homo sapiens, UniProt O95551); experiment: human TDP2 enzyme inhibitors, dose response, biochemical, epi absorbance, IC50 (AID 743297)
Tyrosyl-DNA phosphodiesterase 2, sequence (O95551 whole entry): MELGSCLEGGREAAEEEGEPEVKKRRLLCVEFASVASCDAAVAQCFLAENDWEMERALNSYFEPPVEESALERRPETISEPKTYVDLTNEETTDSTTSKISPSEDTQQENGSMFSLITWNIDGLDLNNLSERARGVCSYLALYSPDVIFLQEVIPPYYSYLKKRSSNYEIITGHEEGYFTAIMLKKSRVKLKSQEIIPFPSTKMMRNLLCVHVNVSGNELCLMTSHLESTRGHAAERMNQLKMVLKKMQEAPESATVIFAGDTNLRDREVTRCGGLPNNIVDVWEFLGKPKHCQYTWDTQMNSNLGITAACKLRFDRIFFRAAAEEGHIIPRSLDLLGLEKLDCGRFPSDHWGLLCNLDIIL

[11] = system: BJ; experiment: cytotoxicity toward BJ-TERT fibroblasts, dose response, cell-based, RAS-independent, luminescence (AID 1933); type: functional; settings: Homo sapiens
[12] = system: BJ; experiment: cells; type: functional, cell-based; settings: Homo sapiens
[13] = system: BJ; experiment: cytotoxicity toward BJ-TERT-LT-ST fibroblasts, dose response, cell-based, RAS-independent, luminescence (AID 1935); type: functional; settings: Homo sapiens;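 note: BJ fibroblasts immortalized with TERT plus LT and ST oncogenes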
[14] = cytotoxicity toward DRD oncogenic fibroblasts, dose response, cell-based, non-viral oncogenic, luminescence (AID 1934); type: functional; settings: Homo sapiens
[15] = target: T3, G-protein coupled receptor 55 (Homo sapiens, UniProt Q9Y2T6); experiment: GPR55 agonists via beta-arrestin recruitment, primary screen, imaging, U2OS cells, beta-arrestin-GFP redistribution (AID 1961); type: functional
T3 sequence (Q9Y2T6 whole entry): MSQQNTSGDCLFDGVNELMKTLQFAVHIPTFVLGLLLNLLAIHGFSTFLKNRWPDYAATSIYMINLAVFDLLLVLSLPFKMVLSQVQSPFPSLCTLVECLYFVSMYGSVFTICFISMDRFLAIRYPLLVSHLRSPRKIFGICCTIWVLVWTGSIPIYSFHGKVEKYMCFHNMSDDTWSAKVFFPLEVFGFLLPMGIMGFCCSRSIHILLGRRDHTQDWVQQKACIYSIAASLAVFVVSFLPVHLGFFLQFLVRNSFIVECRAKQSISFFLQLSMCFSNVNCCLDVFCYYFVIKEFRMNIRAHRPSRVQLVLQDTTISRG

[16] = target: T4, Cannabinoid receptor 2 (Homo sapiens, UniProt P34972); experiment: SAR analysis of antagonists of the Cannabinoid Receptor 2 using an Image-Based Assay - Set 2. [Related pubchem assays (depositor defined):AID1961, AID1965]; type: functional
T4 sequence (P34972 whole entry): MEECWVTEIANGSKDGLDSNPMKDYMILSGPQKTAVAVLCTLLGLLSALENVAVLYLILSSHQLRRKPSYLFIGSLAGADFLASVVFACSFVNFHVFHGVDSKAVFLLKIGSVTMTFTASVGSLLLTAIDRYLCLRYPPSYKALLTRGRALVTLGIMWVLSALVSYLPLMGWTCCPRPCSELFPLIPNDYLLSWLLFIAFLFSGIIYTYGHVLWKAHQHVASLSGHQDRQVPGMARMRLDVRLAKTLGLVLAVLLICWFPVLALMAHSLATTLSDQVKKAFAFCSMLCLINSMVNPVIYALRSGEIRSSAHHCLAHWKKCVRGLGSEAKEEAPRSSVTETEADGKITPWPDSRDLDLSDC

[17] = Luminescence Cell-Based Dose Retest to Confirm Inhibitors of Cancer Stem Cells. [Related pubchem assays (depositor defined):AID2717, AID2721]; type: functional; settings: Homo sapiens
[18] = target: T4, Cannabinoid receptor 2; experiment: SAR analysis of agonists of the Cannabinoid Receptor 2 using an Image-Based Assay - Set 2. [Related pubchem assays (depositor defined):AID1961, AID1965]; type: functional
[19] = target: T3, G-protein coupled receptor 55; experiment: SAR analysis of selective Agonists of GPR55 using an Image-Based Assay. [Related pubchem assays (depositor defined):AID1961, AID1965]; type: functional
[20] = target: Cannabinoid receptor 1 (Homo sapiens, UniProt P21554); experiment: SAR analysis of antagonists of the Cannabinoid Receptor 1 using an Image-Based Assay. [Related pubchem assays (depositor defined):AID1961, AID1965]; type: functional
Cannabinoid receptor 1, sequence (P21554 whole entry): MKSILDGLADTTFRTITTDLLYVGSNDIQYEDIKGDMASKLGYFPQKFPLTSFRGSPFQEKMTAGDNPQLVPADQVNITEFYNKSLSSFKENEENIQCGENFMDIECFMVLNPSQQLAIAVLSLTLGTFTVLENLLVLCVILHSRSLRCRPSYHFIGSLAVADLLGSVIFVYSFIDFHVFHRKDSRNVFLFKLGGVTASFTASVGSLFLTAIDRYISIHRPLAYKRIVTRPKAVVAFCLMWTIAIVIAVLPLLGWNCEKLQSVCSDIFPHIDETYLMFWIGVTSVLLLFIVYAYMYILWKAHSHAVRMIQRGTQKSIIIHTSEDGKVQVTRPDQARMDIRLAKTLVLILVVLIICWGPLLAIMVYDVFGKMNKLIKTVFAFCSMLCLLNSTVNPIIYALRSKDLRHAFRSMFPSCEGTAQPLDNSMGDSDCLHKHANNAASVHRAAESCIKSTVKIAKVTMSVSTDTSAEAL

[21] = target: Sphingosine 1-phosphate receptor 5 (Homo sapiens, UniProt Q9H228); experiment: Late stage counterscreen assay for S1P4 antagonists: Fluorescence dose response cell-based screening assay for antagonists of the Sphingosine 1-Phosphate Receptor 5 (S1P5). [Related pubchem assays (depositor defined):AID1510, AID1524, AID1692, AID1853, AID2332, AID489009, AID489017]; type: functional
Sphingosine 1-phosphate receptor 5, sequence (Q9H228 whole entry): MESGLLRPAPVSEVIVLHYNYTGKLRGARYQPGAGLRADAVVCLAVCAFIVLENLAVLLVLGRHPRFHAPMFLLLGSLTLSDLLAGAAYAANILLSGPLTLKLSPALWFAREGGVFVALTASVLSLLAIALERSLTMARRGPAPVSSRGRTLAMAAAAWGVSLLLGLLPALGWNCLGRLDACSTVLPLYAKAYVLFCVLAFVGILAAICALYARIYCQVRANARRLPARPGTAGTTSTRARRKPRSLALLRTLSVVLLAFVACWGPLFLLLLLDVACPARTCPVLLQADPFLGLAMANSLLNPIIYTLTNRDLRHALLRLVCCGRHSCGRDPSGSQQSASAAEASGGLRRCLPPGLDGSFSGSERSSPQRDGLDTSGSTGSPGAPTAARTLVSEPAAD

[22] = target: Sphingosine 1-phosphate receptor 3 (Homo sapiens, UniProt Q99500); experiment: Late stage counterscreen assay for S1P4 antagonists: Fluorescence dose response cell-based screening assay for antagonists of the Sphingosine 1-Phosphate Receptor 3 (S1P3). [Related pubchem assays (depositor defined):AID1510, AID1524, AID1692, AID1853, AID2332, AID489009, AID489017]; type: functional
Sphingosine 1-phosphate receptor 3, sequence (Q99500 whole entry): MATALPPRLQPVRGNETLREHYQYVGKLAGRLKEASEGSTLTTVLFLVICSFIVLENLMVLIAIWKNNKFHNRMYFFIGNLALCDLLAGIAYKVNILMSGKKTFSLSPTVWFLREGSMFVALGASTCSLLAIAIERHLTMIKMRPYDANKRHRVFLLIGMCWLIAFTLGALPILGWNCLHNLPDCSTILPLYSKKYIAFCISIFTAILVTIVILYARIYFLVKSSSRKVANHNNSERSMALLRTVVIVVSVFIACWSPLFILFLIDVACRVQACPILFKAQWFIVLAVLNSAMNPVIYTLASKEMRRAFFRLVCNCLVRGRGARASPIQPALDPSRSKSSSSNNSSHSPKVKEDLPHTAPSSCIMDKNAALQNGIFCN

[23] = target: Sphingosine 1-phosphate receptor 1 (Homo sapiens, UniProt P21453); experiment: Late stage counterscreen assay for S1P4 antagonists: Fluorescence dose response cell-based screening assay for antagonists of the Sphingosine 1-Phosphate Receptor 1 (S1P1). [Related pubchem assays (depositor defined):AID1510, AID1524, AID1692, AID1853, AID2332, AID489009, AID489017]; type: functional
[24] = target: T5, Sphingosine 1-phosphate receptor 4 (Homo sapiens, UniProt O95977); experiment: S1P4 receptor antagonists, human, late-stage follow-up, cell-based, fluorescence, synthesized analogues (AID 2346); type: functional
T5 sequence (O95977 whole entry): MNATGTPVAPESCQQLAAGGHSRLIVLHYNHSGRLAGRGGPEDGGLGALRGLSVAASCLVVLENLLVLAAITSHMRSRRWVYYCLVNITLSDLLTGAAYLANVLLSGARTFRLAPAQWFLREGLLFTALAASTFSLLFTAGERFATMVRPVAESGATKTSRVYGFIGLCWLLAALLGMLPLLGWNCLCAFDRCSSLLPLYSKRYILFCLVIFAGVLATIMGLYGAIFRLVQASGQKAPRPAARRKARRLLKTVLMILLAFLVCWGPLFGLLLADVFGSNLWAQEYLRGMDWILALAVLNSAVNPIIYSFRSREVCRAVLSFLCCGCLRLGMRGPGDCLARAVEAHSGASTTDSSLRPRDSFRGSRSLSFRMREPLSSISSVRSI

[25] = target: Sphingosine 1-phosphate receptor 2 (Homo sapiens, UniProt O95136); experiment: Late stage counterscreen assay for S1P4 antagonists: Fluorescence dose response cell-based screening assay for antagonists of the Sphingosine 1-Phosphate Receptor 2 (S1P2). [Related pubchem assays (depositor defined):AID1510, AID1524, AID1692, AID1853, AID2332, AID489009, AID489017]; type: functional
Sphingosine 1-phosphate receptor 2, sequence (O95136 whole entry): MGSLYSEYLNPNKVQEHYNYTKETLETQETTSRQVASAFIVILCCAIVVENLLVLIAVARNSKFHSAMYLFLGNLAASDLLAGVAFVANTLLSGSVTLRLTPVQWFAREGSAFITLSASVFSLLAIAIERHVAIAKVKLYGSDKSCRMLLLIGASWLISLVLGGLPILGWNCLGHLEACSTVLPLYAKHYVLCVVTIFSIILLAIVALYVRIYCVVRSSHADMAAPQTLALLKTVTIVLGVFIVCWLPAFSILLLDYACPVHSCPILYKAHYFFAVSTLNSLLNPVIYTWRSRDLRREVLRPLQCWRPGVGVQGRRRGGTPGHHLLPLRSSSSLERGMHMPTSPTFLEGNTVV

[26] = target: T3, G-protein coupled receptor 55; experiment: GPR55 antagonists, SAR follow-up, counter-screen for GPR35 antagonist project, imaging, image-based (AID 2397); type: functional
[27] = target: T6, Kappa-type opioid receptor (Homo sapiens, UniProt P41145); experiment: KOR agonist analogs, arrestin-GFP redistribution, SAR follow-up, imaging, image-based, set 3 (AID 488833); type: functional
T6 sequence (P41145 whole entry): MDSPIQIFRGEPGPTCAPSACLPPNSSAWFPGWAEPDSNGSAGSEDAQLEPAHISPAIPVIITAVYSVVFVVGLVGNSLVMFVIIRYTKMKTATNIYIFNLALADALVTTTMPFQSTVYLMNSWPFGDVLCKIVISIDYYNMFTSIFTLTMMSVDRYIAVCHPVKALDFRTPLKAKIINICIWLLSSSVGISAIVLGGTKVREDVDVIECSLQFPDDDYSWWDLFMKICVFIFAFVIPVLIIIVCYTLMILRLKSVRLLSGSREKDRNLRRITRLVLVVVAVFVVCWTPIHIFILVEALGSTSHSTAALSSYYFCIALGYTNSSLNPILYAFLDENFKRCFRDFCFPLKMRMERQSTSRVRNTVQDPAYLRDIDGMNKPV

[28] = target: Mu-type opioid receptor (Homo sapiens, UniProt P35372); experiment: SAR Analysis of Agonists of the MOR Receptor using an Image-Based Assay - Set 3. [Related pubchem assays (depositor defined):AID1777, AID1785, AID1786, AID1966, AID2133, AID2136, AID2284, AID2285, AID2352]; type: functional
[29] = target: Delta-type opioid receptor (Homo sapiens, UniProt P41143); experiment: SAR Analysis of Agonists of the DOR Receptor using an Image-Based Assay - Set 3. [Related pubchem assays (depositor defined):AID1777, AID1786]; type: functional
Delta-type opioid receptor, sequence (P41143 whole entry): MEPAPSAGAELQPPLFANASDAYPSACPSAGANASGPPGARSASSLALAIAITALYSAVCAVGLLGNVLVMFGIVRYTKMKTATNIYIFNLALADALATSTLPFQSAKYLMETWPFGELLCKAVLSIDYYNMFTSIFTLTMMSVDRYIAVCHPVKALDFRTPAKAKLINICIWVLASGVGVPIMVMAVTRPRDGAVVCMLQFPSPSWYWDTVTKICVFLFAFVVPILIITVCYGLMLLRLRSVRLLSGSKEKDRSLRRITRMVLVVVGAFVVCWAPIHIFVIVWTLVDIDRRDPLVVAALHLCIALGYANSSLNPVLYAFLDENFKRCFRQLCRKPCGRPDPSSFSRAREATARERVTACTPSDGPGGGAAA

[30] = target: T6, Kappa-type opioid receptor; experiment: SAR analysis of small molecule agonists of the kappa opioid receptor via a luminescent beta-arrestin assay - Set 3. [Related pubchem assays (depositor defined):AID1777, AID1785, AID1786, AID1966, AID2133, AID2136, AID2284, AID2500]; type: functional
[31] = target: Intestinal-type alkaline phosphatase (Mus musculus, UniProt P24822); experiment: PubChem AID 488785; type: functional
Intestinal-type alkaline phosphatase (Mus musculus, UniProt P24822), sequence (P24822 whole entry): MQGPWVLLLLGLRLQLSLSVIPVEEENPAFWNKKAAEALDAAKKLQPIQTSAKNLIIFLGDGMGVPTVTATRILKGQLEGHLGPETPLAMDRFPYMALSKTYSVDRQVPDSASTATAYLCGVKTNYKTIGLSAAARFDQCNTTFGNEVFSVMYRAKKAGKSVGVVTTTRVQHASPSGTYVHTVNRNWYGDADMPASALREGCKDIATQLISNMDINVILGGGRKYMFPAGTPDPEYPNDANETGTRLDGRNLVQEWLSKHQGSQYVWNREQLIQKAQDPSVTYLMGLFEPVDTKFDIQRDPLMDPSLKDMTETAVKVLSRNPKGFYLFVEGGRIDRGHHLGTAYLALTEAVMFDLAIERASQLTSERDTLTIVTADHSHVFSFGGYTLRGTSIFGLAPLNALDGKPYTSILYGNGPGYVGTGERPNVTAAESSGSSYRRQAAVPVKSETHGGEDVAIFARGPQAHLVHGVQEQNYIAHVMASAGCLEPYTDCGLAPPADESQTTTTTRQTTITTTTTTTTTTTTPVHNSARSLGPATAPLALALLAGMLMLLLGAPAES

[32] = target: T7, Alkaline phosphatase, tissue-nonspecific isozyme (Homo sapiens, UniProt P05186); experiment: TNAP enzyme inhibition by screening hits, dose response, selectivity assay for mouse IAP inhibitor project, biochemical, human TNAP, uHTS hits (AID 488906); type: functional
T7 sequence (P05186 whole entry): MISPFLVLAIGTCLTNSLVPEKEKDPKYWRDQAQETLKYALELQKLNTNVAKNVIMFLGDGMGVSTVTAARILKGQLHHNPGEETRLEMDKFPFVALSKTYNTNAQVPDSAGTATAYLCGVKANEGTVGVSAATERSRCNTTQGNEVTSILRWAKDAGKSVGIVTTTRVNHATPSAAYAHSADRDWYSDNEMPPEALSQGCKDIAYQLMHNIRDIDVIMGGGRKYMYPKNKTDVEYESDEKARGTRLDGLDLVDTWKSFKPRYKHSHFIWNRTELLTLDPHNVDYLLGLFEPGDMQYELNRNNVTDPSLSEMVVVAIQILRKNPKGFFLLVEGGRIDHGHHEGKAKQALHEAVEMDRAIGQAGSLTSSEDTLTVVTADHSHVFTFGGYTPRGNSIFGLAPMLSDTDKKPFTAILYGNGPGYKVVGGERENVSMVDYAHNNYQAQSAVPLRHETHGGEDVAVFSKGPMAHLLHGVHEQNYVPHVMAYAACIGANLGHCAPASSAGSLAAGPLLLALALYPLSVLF

[33] = target: Intestinal-type alkaline phosphatase (Homo sapiens, UniProt P09923); experiment: inhibition of human intestinal alkaline phosphatase – biochemical, dose response (AID 488876); type: functional
Intestinal-type alkaline phosphatase (Homo sapiens, UniProt P09923), sequence (P09923 whole entry): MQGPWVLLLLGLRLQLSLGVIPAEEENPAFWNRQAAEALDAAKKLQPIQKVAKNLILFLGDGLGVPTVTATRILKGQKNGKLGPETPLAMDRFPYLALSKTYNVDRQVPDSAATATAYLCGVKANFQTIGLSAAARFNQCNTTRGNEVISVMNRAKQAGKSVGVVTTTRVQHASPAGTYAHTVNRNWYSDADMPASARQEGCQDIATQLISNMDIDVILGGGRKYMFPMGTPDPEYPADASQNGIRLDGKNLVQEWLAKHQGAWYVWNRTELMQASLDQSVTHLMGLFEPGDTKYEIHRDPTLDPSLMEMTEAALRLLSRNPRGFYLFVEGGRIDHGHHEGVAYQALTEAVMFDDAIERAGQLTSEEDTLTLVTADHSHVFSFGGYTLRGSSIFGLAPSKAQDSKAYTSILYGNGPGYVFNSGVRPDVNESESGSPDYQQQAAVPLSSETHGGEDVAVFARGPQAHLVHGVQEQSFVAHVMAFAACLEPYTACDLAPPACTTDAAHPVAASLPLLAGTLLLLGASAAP

[34] = system: Vero; experiment: Vero cell cytotoxicity, cytotoxicity control for flavivirus capping enzyme inhibitors (AID 588742); type: functional; settings: Chlorocebus sabaeus

## Sc1nnc(-c2cc(-c3ccccc3)[nH]n2)n1N=Cc1c(Cl)cccc1Cl
[1]
  IC50: 82 µM (active)

## CCC(C)NCCOCCOc1ccc(Cl)c(C)c1C (centres undefined)
[2]
  IC50: > 79.4 µM (inactive)
[3]
  EC50: 0.148 µM (active)
[4]
  EC50: 9.69 µM (active)
[5]
  IC50: > 79.4 µM (inactive)
[6]
  IC50: > 79.4 µM (inactive)

## O=C1NC(=O)C(Sc2ccccc2[N+](=O)[O-])C(=O)N1
[7]
  IC50: 52.7 µM (active)
[8]
  AC50: 2.28 µM (active)
[9]
  AC50: 1.23 µM (active)
[10]
  IC50: 36.3 µM (inactive)

## Cc1occc1C(=O)Nc1ccc(OCc2ccccc2)cc1
[11]
  EC50: 11.4 µM (active)
[12]
  EC50: 9.33 µM (active)
[13]
  EC50: > 150 µM (inconclusive)
[14]
  EC50: 9.29 µM (active)
[15]
  EC50: 0.866 µM (active)
[16]
  IC50: > 32 µM (inactive)
[17]
  AC50: 5.34 µM (active)
[18]
  EC50: > 32 µM (inactive)
[19]
  EC50: 0.544 µM (active)
[20]
  IC50: > 32 µM (inactive)

## CCOc1ccc(OC)cc1-c1ccc(C(=O)Nc2c(C)cccc2CC)o1
[21]
  IC50: 19.2 µM (inactive)
[22]
  IC50: > 25 µM (inactive)
[23]
  IC50: > 25 µM (inactive)
[24]
  IC50: 0.414 µM (active)
[25]
  IC50: > 25 µM (inactive)

## Fc1ccc(N2CCN(c3ncnc4c3cnn4Cc3ccc(Cl)cc3Cl)CC2)cc1
[26]
  IC50: > 32 µM (inactive)

## Fc1cc(F)cc(CSc2nnc(-c3ccccn3)n2Cc2cccs2)c1
[27]
  EC50: 3.58 µM (active)
[28]
  EC50: > 32 µM (inactive)
[29]
  EC50: > 32 µM (inactive)
[30]
  EC50: 7.2 µM (active)

## CCOC(=O)C1=C(C)N=c2s/c(=C/c3cccc([N+](=O)[O-])c3O)c(=O)n2C1c1ccc(OC)cc1OC (centres undefined)
[31]
  IC50: 4.77 µM (active)
[32]
  IC50: 77.1 µM (active)
[33]
  IC50: > 100 µM (inactive)
[34]
  CC50: 39.4 µM (active)
